Results from patent US20220288148A1, “METHODS FOR RELIEVING BACK PAIN WITH TERMINALIA CHEBULA COMPOSITIONS” (Natreon, Inc., priority 2021, published 2022).

Assays:
low back pain = test: Case reports of human subjects with low back pain (Examples 2-5); format: in vivo; settings: before AyuFlex
Protocol: Several human subjects suffering from back pain were administered an effective amount of a T. chebula composition according to the present invention (AyuFlex®, an aqueous extract of T. chebula fruit in powdered and standardized form, orally administered in a capsule containing 500 mg of the extract). […] Subject weights ranged from 54.5 kg to 72.7 kg, and daily doses ranged from 500 mg to 2000 mg per day of AyuFlex®, which may be calculated at a dose range of about 6.88 mg AyuFlex®/kg body weight of a subject to about 36.7 mg AyuFlex®/kg body weight of a subject.
Prior to administration of AyuFlex®, the subject reported a history of suffering from chronic low back pain, described by the subject as sciatic pain, as well as from patellar tendonitis, for the past ten years. The subject indicated their belief that the low back pain was due to a very active lifestyle that included lifting heavy weights. They previously attempted to relieve the chronic low back pain with numerous rounds of physical therapy and rehab-based regimens, but was only provided with temporary relief until they resumed exercise.
The subject began oral administration of 2 (two) 500 mg AyuFlex® capsules daily to treat their low back pain.
Prior to administration of AyuFlex®, the subject reported a history of back pain described by the subject as sciatic pain, beginning when they were young. They were a gymnast for many years, and as a result injured their back. They were diagnosed with small compression fractures and disk bulges in their lower back. Throughout their teen years, the subject underwent intermittent physical therapy, and also sought treatment from a chiropractor for two years. Although the subject reported some temporary relief from these treatments, their pain was not resolved.
The subject further reported that, due to lack of exercise over the years, their sciatic pain became extremely severe. […] Within a month of the onset of these severe symptoms, the subject described having only one or two days where […] was pain-free. […] reported relying heavily on acetaminophen (Tylenol®) and ibuprofen (Advil®) to ease their pain, as they were often not able to sleep due to the sharp sciatic pain. […] Along with the sciatic pain, for a few months before beginning administration of Ayuflex®, the subject reported experiencing stiffness in […] lower back as well. […] reported needing to bend their back to walk for a few minutes after they would stand.
The subject began oral administration of Ayuflex®, taking a 500 mg capsule twice daily for about 2 months, and then recently chose to increase the dosage to 1000 mg (2 capsules) twice daily. […]

[1] = test system: collagen-induced arthritis; settings: mice with collagen-induced arthritis; cited from earlier work
[2] = test system: subjects with hyperuricemia; settings: cited from earlier work

## CC(=O)Nc1ccc(O)cc1 [acetaminophen]
Low back pain; Example 3 subject
  subject-reported pain relief by prior analgesics: only relieved their pain for a few hours
Low back pain; Example 5 subject
  subject-reported pain relief by prior analgesics: only relieved the pain for a few hours

## O=C(O)C[C@@H]1C(=O)O[C@H]2[C@H](OC(=O)c3cc(O)c(O)c(O)c3)[C@@H](OC(=O)c3cc(O)c(O)c4c3[C@H]1[C@H](O)C(=O)O4)[C@H](OC(=O)c1cc(O)c(O)c(O)c1)O[C@@H]2COC(=O)c1cc(O)c(O)c(O)c1 [chebulinic acid]
[1]
  conclusion on anti-VEGF antiangiogenic action for inflammatory arthritis: safe and potent anti-VEGF antiangiogenic agent

## Cc1nc(-c2ccc(OCC(C)C)c(C#N)c2)sc1C(=O)O [febuxostat]
[2]; as early as 4 weeks, T. bellerica 500 and 250 mg BID, febuxostat 40 mg, T. chebula 500 mg BID
  reduction in mean serum uric acid levels compared to baseline: Significant reduction
[2]; baseline, T. bellerica 500 mg BID, febuxostat 40 mg once daily, in mg/dL (unit assumed)
  serum uric acid levels, baseline: 8.53±0.97
[2]; end of 24 weeks, T. bellerica 500 mg BID, febuxostat 40 mg once daily, in mg/dL (unit assumed)
  serum uric acid levels at the end of 24 weeks: 4.28±0.67

## CC(C)Cc1ccc(C(C)C(=O)O)cc1 (centres unmarked) [ibuprofen]
Low back pain; Example 3 subject
  subject-reported pain relief by prior analgesics: only relieved their pain for a few hours
Low back pain; Example 5 subject
  subject-reported pain relief by prior analgesics: only relieved the pain for a few hours
